Assay results reported in patent US9096605B2, “Pyrazolopyrimidine derivatives as PI3 kinase inhibitors” (GlaxoSmithKline LLC, priority 2011, dated 2015).
Where a name gives a salt, the structure may show the parent alone.

Columns and labels:
PI3K-beta = biological target: T1, PI3K-beta (Homo sapiens, UniProt P42338); assay: HTRF in vitro profiling assay for PI3K inhibition (beta isoform); format: biochemical; conditions: PI3K-beta enzyme pIC50 range, 200 pM enzyme, 100 uM ATP, 10 uM PIP2, 150 mM NaCl, corrected pIC50, read-out: PI3K-b Enz Activity
T1 construct: made in house
Source text: HTRF In Vitro Profiling Assays for PI3K Inhibition
The PI3-Kinase profiling assays were developed to measure the compound-dependent inhibition of the alpha, beta, delta, and gamma isoforms of PI3K in an in vitro catalytic assay. This assay was developed and optimized from a kit produced by Upstate (Millipore catalog #33-017). Briefly, this procedure utilizes a pre-formed HTRF (Homogeneous Time-Resolved Fluorescence energy transfer) complex between four binding partners: 1) biotinylated PIP3, 2) GST tagged pleckstrin homology (PH) domain, 3) Europium labeled anti-GST monoclonal antibody, and 4) Streptavidin-Allophycocyanin (APC). The native PIP3 produced by PI 3-Kinase activity displaces biotin-PIP3 from the PH domain, resulting in the dissociation of the HTRF complex and a decrease in the fluorescence signal. The format of this assay is the same for all 4 isoforms of PI3K; the differences lie in the concentration of enzyme used to achieve the most robust signal. The alpha and delta assays are run at 400 pM enzyme; the beta assay is at 200 pM enzyme and the gamma assay is run at 1 nM enzyme. In addition, the alpha, beta and delta assays are run with 150 mM NaCl while the gamma assay is run in the absence of NaCl. The ATP concentration is 100 uM in the alpha, beta, and delta assays and 15 uM ATP in the gamma assay. All reactions are run at 10 uM PIP2
Compounds are serially diluted (3-fold in 100% DMSO) across a 384-well polypropylene mother plate from column 1 to column 12 and column 13 to column 24, to yield 11 concentrations for each test compound. Columns 6 and 18 contain only DMSO. Once titrations are made, […] is transferred to a 384-well low-volume assay plate (Greiner 784076). This assay plate contains three pharmacological controls (known PI3K inhibitors) and 3 assay controls: (1) Enzyme without inhibitor; (2) Buffer minus enzyme, and (3) Buffer minus enzyme plus native PIP3. DMSO is stamped into all wells of columns 6 and 18. PIP3 is added at 40 μM in 1× Reaction buffer (1 μL of 200 μM PIP3) to alternating rows of column 18 (wells 18 B, D, F, H, J, L, N, P). The no-enzyme control reactions are run in wells 18 A, C, E, G, I, K, M, O (0.1 μL of 100% DMSO).
The PI3-Kinase profiling assay was optimized using the HTRF kit provided by Upstate (Millipore). The assay kit contains seven reagents: 1) 4× Reaction Buffer; 2) native PIP2 (substrate); 3) Stop A (EDTA); 4) Stop B (Biotin-PIP3); 5) Detection Mix A (Streptavidin-APC); 6) Detection Mix B (Eu-labeled Anti-GST plus GST-tagged PH-domain); 7) Detection Mix C (KF). In addition, the following items were obtained or purchased: PI3Kinase (prepared by GSK BR&AD), dithiothreitol (Sigma, D-5545), Adenosine-5′-triphosphate (ATP, Teknova cat. # A0220), native PIP3 (1,2-dioctanoyl-sn-glycero-3-[phosphoinositil-3,4,5-triphosphate]tetraammonium salt (Avanti polar lipids, 850186P), DMSO (Sigma, 472301).
PI3Kinase Reaction Buffer is prepared by diluting the stock 1:4 with de-ionized water. Freshly prepared DTT is added at a final concentration of 5 mM on the day of use. Enzyme addition and compound pre-incubation are initiated by the addition of 2.5 μL of PI3K (at twice its final concentration) in 1× reaction buffer to all wells using a Multidrop Combi. Plates are incubated at room temperature for 15 minutes. Reactions are initiated by addition of 2.5 μL of 2× substrate solution (PIP2 and ATP in 1× reaction buffer) using a Multidrop Combi. Plates are incubated at room temperature for one hour. Reactions are quenched by the addition of 2.5 μL of stop solution (Stop A and Stop B pre-mixed at a ratio of 5:1, respectively) to all wells using the Multidrop Combi. […]

[1] = system: pAKT(Ser473) in MDA-MB-468 cells; assay: pAKT(Ser473) assay in MDA-MB-468 cells; format: cell-based; conditions: Homo sapiens, 0.5 h, compound treatment 30 minutes, MSD ELISA phospho AKT(Ser473), given as ranges, read-out: Cell Activity—pAKT IC50 in MDA-MB-468
Method: pAKT(Ser473) Assay in MDA-MB-468 Cells
MDA-MB-468 cells were plated in 384-well flat clear bottom tissue culture plates (Corning #3701) at a density of 5000 cells per 0.057 cm2 in 48 ul of RPMI 1640 media supplemented with 10% fetal bovine serum (FBS). Cells were seeded with a Wellmate liquid handler (Matrix). Columns 1 through 23 were plated with cells and column 24 contained media alone. Cells were incubated at 37° C. with 5% CO2 for approximately 16-20 hours. Duplicate compound plates were prepared in 384-well polypropylene V-Bottom plates (Greiner #781280).
Compound titrations were made across the columns (A1-A20). 20 ul of compound was added to the first column and diluted into a 20 point curve with dimethylsulfoxide (DMSO, Thermo #TS2064) using a 2-fold dilution factor with a liquid handling robot (Hamilton). Columns 22 through 24 contained DMSO alone. Titrations were diluted 682-fold for compound treatment with 4 ul of compound added to 105 ul of RPMI media. Two ul of the diluted compound was added to the cell plates containing 48 ul of media using a multimek robot (Beckman Coulter). Final DMSO concentrations were 0.15%. Cells were treated with compound for 30 minutes at 37° C. with 5% CO2.
Following incubation, media was aspirated from dosed cell plates using an ELx405 plate washer (Bio-Tek) and 25 ul of 4° C. Meso Scale Discovery (MSD) lysis buffer with the addition of protease and phosphatase inhibitors (supplied in MSD kit #N31CB-1) was added to each well using a multidrop combi (Thermo). Precoated 4-spot per well MSD ELISA plates coated with total and phospho AKT(Ser473) antibody and BSA (supplied in kit) were blocked for 1 hour at room temperature with 35 ul per well of 1× MSD wash buffer+3% BSA (supplied in kit).
Blocked plates were washed 4 times with 100 ul per well of 1× Tris wash buffer (supplied in MSD kit) using an Elx405 plate washer (Bio-Tek). To each well, 20 ul of cell lysate was added using a multimek robot (Beckman Coulter) and the plate incubated at 4° C. overnight (˜12-24 hours). Following incubation, the ELISA plates were washed 4 times (100 ul/well) with 1× Tris wash buffer. Twenty microliters per well of 1× detection antibody (supplied in MSD kit) was added using a multidrop combi (Thermo), followed by a 2 hour incubation at room temperature. Detection antibody was aspirated and the plates washed 4 times (100 ul/well) with 1× Tris wash buffer. Read Buffer (supplied in MSD kit) was added at 1× (35 ul/well) at room temperature using a multidrop (Thermo). Relative luminescence units (RLU) were determined using a SECTOR™ Imager 6000 with MSD Workbench Software.
Concentration Response Curves for pAKT(Ser473):
For analysis of the pAKT(Ser473) concentration response curves, the data was normalized using Phospho AKT values divided by the sum of corresponding Total AKT and Phospho AKT values. The normalized values are plotted as the percent of the DMSO-treated control values on the corresponding plate. To determine IC50 values, the data is fit to a 4 parameter nonlinear sigmoidal dose response (variable slope) using GraphPad Prism version 4 for Windows, (GraphPad Software, San Diego Calif. USA). Criteria for curve fitting and IC50 determination include that the IC50 values from duplicate runs must be within 2 to 3-fold of each other, the Y min must be less than or equal to 30% of the DMSO-treated control and the Y max must range between 80-120%. Any data point equal to or greater than 40% of the curve was not utilized.

T1 sequence (P42338 whole entry, canonical isoform): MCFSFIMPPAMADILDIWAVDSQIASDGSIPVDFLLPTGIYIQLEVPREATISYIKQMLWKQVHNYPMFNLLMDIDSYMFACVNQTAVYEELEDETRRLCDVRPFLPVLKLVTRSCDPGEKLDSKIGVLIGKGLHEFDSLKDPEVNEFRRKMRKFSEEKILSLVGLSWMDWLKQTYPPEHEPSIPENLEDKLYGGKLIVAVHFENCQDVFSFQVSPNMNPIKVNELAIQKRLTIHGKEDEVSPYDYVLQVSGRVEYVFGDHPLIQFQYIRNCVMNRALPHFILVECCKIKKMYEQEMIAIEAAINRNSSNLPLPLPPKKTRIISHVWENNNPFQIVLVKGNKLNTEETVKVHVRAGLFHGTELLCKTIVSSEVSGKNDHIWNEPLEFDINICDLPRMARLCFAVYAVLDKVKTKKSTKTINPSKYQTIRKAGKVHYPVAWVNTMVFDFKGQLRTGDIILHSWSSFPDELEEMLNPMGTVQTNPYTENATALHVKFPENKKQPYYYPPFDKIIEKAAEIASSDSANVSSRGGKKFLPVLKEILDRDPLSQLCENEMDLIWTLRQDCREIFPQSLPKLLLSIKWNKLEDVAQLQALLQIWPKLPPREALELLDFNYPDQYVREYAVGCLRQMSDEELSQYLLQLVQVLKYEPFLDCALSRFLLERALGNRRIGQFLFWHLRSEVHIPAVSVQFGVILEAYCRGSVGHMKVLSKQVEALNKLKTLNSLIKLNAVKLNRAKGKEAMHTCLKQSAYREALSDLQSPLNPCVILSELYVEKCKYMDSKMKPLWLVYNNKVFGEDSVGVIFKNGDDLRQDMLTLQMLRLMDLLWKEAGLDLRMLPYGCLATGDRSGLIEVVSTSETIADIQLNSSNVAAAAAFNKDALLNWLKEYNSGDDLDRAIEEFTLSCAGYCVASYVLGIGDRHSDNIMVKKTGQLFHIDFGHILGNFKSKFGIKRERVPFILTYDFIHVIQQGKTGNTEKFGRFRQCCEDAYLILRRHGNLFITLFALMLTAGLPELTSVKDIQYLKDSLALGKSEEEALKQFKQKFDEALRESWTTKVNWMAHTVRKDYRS
T1 sequence (P27986 whole entry partner, canonical isoform): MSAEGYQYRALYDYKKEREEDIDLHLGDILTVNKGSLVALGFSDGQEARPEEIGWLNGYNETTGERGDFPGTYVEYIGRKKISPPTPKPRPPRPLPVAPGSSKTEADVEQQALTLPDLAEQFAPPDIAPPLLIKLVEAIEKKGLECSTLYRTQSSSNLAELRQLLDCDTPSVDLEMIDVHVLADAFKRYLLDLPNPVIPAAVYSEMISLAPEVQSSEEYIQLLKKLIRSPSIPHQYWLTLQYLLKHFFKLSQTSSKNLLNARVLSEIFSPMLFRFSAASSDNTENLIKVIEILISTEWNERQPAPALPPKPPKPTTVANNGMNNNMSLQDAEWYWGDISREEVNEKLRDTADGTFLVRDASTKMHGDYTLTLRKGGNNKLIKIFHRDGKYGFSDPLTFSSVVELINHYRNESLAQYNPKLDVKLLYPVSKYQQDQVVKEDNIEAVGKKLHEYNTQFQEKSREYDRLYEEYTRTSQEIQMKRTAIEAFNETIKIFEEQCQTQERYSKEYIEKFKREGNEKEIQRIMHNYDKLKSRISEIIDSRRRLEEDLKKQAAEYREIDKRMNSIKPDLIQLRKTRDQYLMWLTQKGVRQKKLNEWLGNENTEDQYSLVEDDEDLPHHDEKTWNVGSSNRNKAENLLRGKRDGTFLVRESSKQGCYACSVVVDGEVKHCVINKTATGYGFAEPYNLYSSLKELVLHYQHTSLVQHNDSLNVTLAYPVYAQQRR

## Cc1nn2c(N)cc(N3CCOCC3)nc2c1Cc1cccc2ccccc12 [Example 27, 2-methyl-5-morpholino-3-(naphthalen-1-ylmethyl)pyrazolo[1,5-a]pyrimidin-7-amine]
PI3K-beta
  IC50: 12.6 to 100 nM
[1]
  IC50: < 1000 nM

## Cc1nn2c(-c3cc[nH]n3)cc(N3CCOCC3)nc2c1Cc1cccc2ccccc12 [Example 42, 4-(2-methyl-3-(naphthalen-1-ylmethyl)-7-(1H-pyrazol-3-yl)pyrazolo[1,5-a]pyrimidin-5-yl)morpholine]
PI3K-beta
  IC50: 1.26 to 10 nM
[1]
  IC50: < 1000 nM

## Cc1cccc(Cc2cnn3c(O)cc(-c4ccncc4)nc23)c1C [Example 14, 3-(2,3-dimethylbenzyl)-5-(pyridin-4-yl)pyrazolo[1,5-a]pyrimidin-7-ol]
PI3K-beta
  IC50: 1.26 to 10 nM
[1]
  IC50: 1000 to 5000 nM

## Cc1nn2c(-c3nc[nH]n3)cc(N3CCOCC3)nc2c1Cc1cccc(C(F)(F)F)c1C [Example 41, 4-(2-methyl-3-(2-methyl-3-(trifluoromethyl)benzyl)-7-(1H-1,2,4-triazol-3-yl)pyrazolo[1,5-a]pyrimidin-5-yl)morpholine]
PI3K-beta
  IC50: 1.26 to 10 nM
[1]
  IC50: 6000 to 10000 nM

## Cc1c(Cc2cnn3c(-c4cn[nH]c4)cc(N4CCOCC4)nc23)cccc1C(F)(F)F [Example 48, 4-(3-(2-methyl-3-(trifluoromethyl)benzyl)-7-(1H-pyrazol-4-yl)pyrazolo[1,5-a]pyrimidin-5-yl)morpholine]
PI3K-beta
  IC50: 126 to 1260 nM
[1]
  IC50: > 20000 nM

## Cc1nn2c(C#N)cc(N3CCOCC3)nc2c1Cc1cccc(C(F)(F)F)c1C [Example 45, 2-methyl-3-(2-methyl-3-(trifluoromethyl)benzyl)-5-morpholinopyrazolo[1,5-a]pyrimidine-7-carbonitrile]
PI3K-beta
  IC50: 126 to 1260 nM
[1]
  IC50: > 20000 nM

## Cc1c(Cc2c(N)nn3c(O)cc(C4CCOCC4)nc23)cccc1C(F)(F)F [Example 25, 2-amino-3-(2-methyl-3-(trifluoromethyl)benzyl)-5-(tetrahydro-2H-pyran-4-yl)pyrazolo[1,5-a]pyrimidin-7-ol]
PI3K-beta
  IC50: 1.26 to 10 nM
[1]
  IC50: < 1000 nM

## Nc1nn2c(O)cc(C3CCOCC3)nc2c1Cc1cccc(Cl)c1Cl [Example 26, 2-amino-3-(2,3-dichlorobenzyl)-5-(tetrahydro-2H-pyran-4-yl)pyrazolo[1,5-a]pyrimidin-7-ol hydrochloride]
PI3K-beta
  IC50: 1.26 to 10 nM
[1]
  IC50: 1000 to 5000 nM

## Nc1nn2c(O)cc(N3CCOCC3)nc2c1Cc1cccc2ccccc12 [Example 23, 2-amino-5-morpholino-3-(naphthalen-1-ylmethyl)pyrazolo[1,5-a]pyrimidin-7-ol]
PI3K-beta
  IC50: 0.126 to 1 nM
[1]
  IC50: < 1000 nM

## Cc1c(Cc2cnn3c(O)cc(-c4ccncc4)nc23)cccc1C(F)(F)F [Example 13, 3-(2-methyl-3-(trifluoromethyl)benzyl)-5-(pyridin-4-yl)pyrazolo[1,5-a]pyrimidin-7-ol]
PI3K-beta
  IC50: 1.26 to 10 nM
[1]
  IC50: 1000 to 5000 nM

## Cc1nn2c(O)cc(N3CCOCC3=O)nc2c1Cc1cccc(C(F)(F)F)c1C [Example 3, 4-(7-hydroxy-2-methyl-3-(2-methyl-3-(trifluoromethyl)benzyl)pyrazolo[1,5-a]pyrimidin-5-yl)morpholin-3-one]
PI3K-beta
  IC50: 126 to 1260 nM
[1]
  IC50: > 20000 nM

## Oc1nn2c(O)cc(-c3ccncc3)nc2c1Cc1ccccc1Cl [Example 21, 3-(2-chlorobenzyl)-5-(pyridin-4-yl)pyrazolo[1,5-a]pyrimidine-2,7-diol]
PI3K-beta
  IC50: 126 to 1260 nM
[1]
  IC50: > 20000 nM

## Cc1ccccc1Cc1c(C)nn2c(O)cc(-c3ccncc3)nc12 [Example 29, 2-methyl-3-(2-methylbenzyl)-5-(pyridin-4-yl)pyrazolo[1,5-a]pyrimidin-7-ol]
PI3K-beta
  IC50: 1.26 to 10 nM
[1]
  IC50: 1000 to 5000 nM

## COc1nn2c(O)cc(-c3ccncc3)nc2c1Cc1cccc(Cl)c1Cl [Example 35, 3-(2,3-dichlorobenzyl)-2-methoxy-5-(pyridin-4-yl)pyrazolo[1,5-a]pyrimidin-7-ol]
PI3K-beta
  IC50: 1.26 to 10 nM
[1]
  IC50: 11000 to 20000 nM

## Cc1c(Cc2cccc(Cl)c2Cl)c2nc(-c3ccncc3)cc(=O)n2n1C [Example 33, 3-(2,3-dichlorobenzyl)-1,2-dimethyl-5-(pyridin-4-yl)pyrazolo[1,5-a]pyrimidin-7(1H)-one]
PI3K-beta
  IC50: 126 to 1260 nM
[1]
  IC50: > 20000 nM

## Cc1nn2c(O)cc(C3CCOCC3)nc2c1Cc1cccc(C(F)(F)F)c1C [Example 4, 2-methyl-3-(2-methyl-3-(trifluoromethyl)benzyl)-5-(tetrahydro-2H-pyran-4-yl)pyrazolo[1,5-a]pyrimidin-7-ol]
PI3K-beta
  IC50: 1.26 to 10 nM
[1]
  IC50: 6000 to 10000 nM

## Cc1nn2c(O)cc(N3CCOCC3)nc2c1Cc1cccc2ccccc12 [Example 22, 2-methyl-5-morpholino-3-(naphthalen-1-ylmethyl)pyrazolo[1,5-a]pyrimidin-7-ol]
PI3K-beta
  IC50: 0.126 to 1 nM
[1]
  IC50: 1000 to 5000 nM

## CC1CN(c2cc(O)n3nc(C(F)(F)F)c(Cc4cccc(Cl)c4Cl)c3n2)CCO1 (stereo not drawn) [Example 8, 3-(2,3-dichlorobenzyl)-5-(2-methylmorpholino)-2-(trifluoromethyl)pyrazolo[1,5-a]pyrimidin-7-ol]
PI3K-beta
  IC50: 1.26 to 10 nM
[1]
  IC50: 6000 to 10000 nM
